This is an account of results in patent US11970474B2, “Substituted benzodiazoles and use thereof in therapy” (THOMAS HELLEDAYS STIFTELSE FÖR MEDICINSK FORSKNING, priority 2018, dated 2024).

One experiment has as its system CCL2. The experiment can be described thus: Mouse CCL2 assay in MLE12 cells. It counts as cell-based. The note with it: Mus musculus, MLE12, 30 h. Summed up:
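MLE12 mouse lung epithelial cells (7500/well, DMEM/F12 with 5% FBS) preincubated 1 h with compounds (6-point dose-response, duplicate), then stimulated with TNF-α (final 20 ng/ml) for 30 h at 37 °C. Secreted CCL2 measured by HTRF sandwich immunoassay (Ex330/Em620, 665 nm) against standard curve; IC50 from delta ratios.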

Another experiment has as its system MLE12 cells. Put plainly: Cell viability assay in MLE12 cells (resazurin). It counts as cell-based, mouse. The settings on record: Mus musculus, TNF-α 20 ng/ml, resazurin added after 24 hours culture. Summed up:
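MLE12 cells (7500 cells/well) were seeded onto 11-point duplicate compound dose-responses, with TNF-α (final 20 ng/ml) added after 1 hour at 37° C. After 24 hours, resazurin was added for 6 hours and resorufin fluorescence read (ex544 nm/em595 nm). EC50 values were calculated by curve fitting.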

The next experiment addresses OGG1 (Homo sapiens (Human), UniProt O15527). The experiment can be described thus: In vitro OGG1 activity assay. It counts as biochemical. The settings on record: 800 pM OGG1 enzyme, 2 nM human APEX1, 10 nM 8-oxoA:C substrate. Summed up: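 Fluorescence-release assay on a duplex oligonucleotide carrying an OGG1 substrate base beside a fluorophore, quenched from the complementary strand. Excess APEX1 cleaves the abasic site left by base excision, melting the duplex and unquenching the fluorophore. Compounds in DMSO were dispensed before enzyme and substrate, and fluorescein signal was read.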

The mark [1] stands for this setting: MLE12 cells, TNF-α 20 ng/ml, supernatant after 30 hours, HTRF, read-out: CCL2 (EC50).

Where two headings read alike, the source gives them in different places. A value given as a limit tells only on which side of the number the result lay.

Chain of OGG1 (O15527 whole entry): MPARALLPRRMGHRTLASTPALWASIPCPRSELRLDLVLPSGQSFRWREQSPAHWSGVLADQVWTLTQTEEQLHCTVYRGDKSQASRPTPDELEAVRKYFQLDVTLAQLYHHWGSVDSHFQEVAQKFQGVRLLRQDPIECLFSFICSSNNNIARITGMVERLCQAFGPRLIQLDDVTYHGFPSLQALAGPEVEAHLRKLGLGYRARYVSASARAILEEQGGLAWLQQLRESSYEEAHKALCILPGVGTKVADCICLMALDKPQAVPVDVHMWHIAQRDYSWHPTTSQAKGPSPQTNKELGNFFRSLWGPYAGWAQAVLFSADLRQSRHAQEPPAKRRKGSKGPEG

By EC50 is commonly meant the midpoint of the concentration-response curve. What is called IC50 is the concentration at which inhibition is half-maximal. Higher therefore signals a need for much substance. Turning to `COc1cc(NC(=O)N2C3CCC2CC(n2c(=O)[nH]c4c(-c5ccc(CO)nc5)cccc42)C3)ccc1Cl` (stereo not drawn) [Example 93, N-(4-chloro-3-methoxyphenyl)-3-{4-[6-(hydroxymethyl)pyridin-3-yl]-2-oxo-2,3-dihydro-1H-1,3-benzodiazol-1-yl}-(endo)-8-azabicyclo[3.2.1]octane-8-carboxamide], the EC50 in the experiment on CCL2 (setting [1]) was 34900 nM. Further, the half-inhibitory concentration (IC50) in the experiment with MLE12 cells (MLE12, 24 h) stood at 21.3 µM; at OGG1 it was 0.091 µM.
As for `COc1cc(NC(=O)[C@H]2CC[C@@H](n3c(=O)[nH]c4c(Br)cccc43)CC2)ccc1Cl` [Example 122, (Cis)-4-(4-bromo-2-oxo-2,3-dihydro-1H-1,3-benzodiazol-1-yl)-N-(4-chloro-3-methoxyphenyl)cyclohexane-1-carboxamide], in the experiment with CCL2 (setting [1]), the EC50 was 14100 nM. Moreover, the IC50 worked out at 4.5 µM in the experiment on MLE12 cells (MLE12, 24 h) and 0.071 µM at OGG1.
In the case of `COc1ncc(NC(=O)[C@H]2CC[C@@H](n3c(=O)[nH]c4c(Br)cccc43)CC2)cc1C` [Example 168, (Cis)-4-(4-bromo-2-oxo-2,3-dihydro-1H-1,3-benzodiazol-1-yl)-N-(6-methoxy-5-methylpyridin-3-yl)cyclohexane-1-carboxamide], the concentration for a half-maximal effect (EC50) in the experiment with CCL2 (setting [1]) is 32600 nM. Further, the IC50 in the experiment with MLE12 cells (MLE12, 24 h) worked out at 14.4 µM; against OGG1, 0.044 µM.
The corresponding values for `COc1ccc(NC(=O)[C@H]2CC[C@@H](n3c(=O)[nH]c4c(Br)cccc43)CC2)cc1C` [Example 126, (Cis)-4-(4-bromo-2-oxo-2,3-dihydro-1H-1,3-benzodiazol-1-yl)-N-(4-methoxy-3-methylphenyl)cyclohexane-1-carboxamide] are 26500 nM, 15.7 µM and 0.012 µM.
The corresponding values for `COc1ccc(NC(=O)[C@H]2CC[C@@H](n3c(=O)[nH]c4c(F)cccc43)CC2)cc1C` [Example 212, Cis-4-(4-fluoro-2-oxo-2,3-dihydro-1H-1,3-benzodiazol-1-yl)-N-(4-methoxy-3-methylphenyl)cyclohexane-1-carboxamide] are 34200 nM, 16.9 µM and 0.00943 µM.
With `COc1ncc(NC(=O)[C@H]2CC[C@@H](n3c(=O)[nH]c4c(Br)cccc43)CC2)cc1Cl` [Example 202, Cis-4-(4-bromo-2-oxo-2,3-dihydro-1H-1,3-benzodiazol-1-yl)-N-(5-chloro-6-methoxypyridin-3-yl)cyclohexane-1-carboxamide], in the experiment with CCL2 (setting [1]), the concentration giving a half-maximal response (EC50) was 11600 nM. For the same compound, the IC50 with MLE12 cells (MLE12, 24 h) turned out to be 7.97 µM; against OGG1, 0.0528 µM.
`COc1cc(NC(=O)[C@H]2CC[C@@H](n3c(=O)[nH]c4c(C(=O)NCc5ncccn5)cccc43)CC2)ccc1C` [Example 276, 2-Oxo-N-[(pyrimidin-2-yl)methyl]-1-[cis-4-[(3-methoxy-4-methylphenyl)carbamoyl]cyclohexyl]-2,3-dihydro-1H-1,3-benzodiazole-4-carboxamide]: the half-maximal effective concentration (EC50) in the experiment with CCL2 (setting [1]) was 54000 nM. The half-inhibitory concentration (IC50) with MLE12 cells (MLE12, 24 h) turned out to be 16.9 µM; against OGG1, 0.0029 µM.
`O=C(Nc1ccc(Cl)c(Cl)c1)N1C2CCC1CC(n1c(=O)[nH]c3c(Br)cccc31)C2` (stereo not drawn) [Example 72, 3-(4-Bromo-2-oxo-2,3-dihydro-1H-1,3-benzodiazol-1-yl)-N-(3,4-dichlorophenyl)-(endo)-8-azabicyclo[3.2.1]octane-8-carboxamide]: the concentration for a half-maximal effect (EC50) in the experiment with CCL2 (read-out: CCL2 (EC50, nM)) amounted to 21500 nM. Also, the results for the IC50 in the experiment on MLE12 cells and against OGG1 were 6.31 µM and 0.067 µM, respectively.
Consider `COc1cc(NC(=O)[C@H]2CC[C@@H](n3c(=O)[nH]c4ccccc43)CC2)ccc1C` [Example 226, Cis-N-(3-methoxy-4-methylphenyl)-4-(2-oxo-2,3-dihydro-1H-1,3-benzodiazol-1-yl)cyclohexane-1-carboxamide], for which the 50% effective concentration (EC50) in the experiment with CCL2 (setting [1]) was determined as 34100 nM. Moreover, the half-inhibitory concentration (IC50) in the experiment with MLE12 cells (MLE12, 24 h) came out at 17.1 µM; against OGG1, 0.0779 µM.
For `Cc1ccc(NC(=O)[C@H]2CC[C@@H](n3c(=O)[nH]c4c(Br)cccc43)CC2)c(F)c1` [Example 153, (Cis)-4-(4-bromo-2-oxo-2,3-dihydro-1H-1,3-benzodiazol-1-yl)-N-(2-fluoro-4-methylphenyl)cyclohexane-1-carboxamide], in the experiment with CCL2 (setting [1]), the EC50 turned out to be 44000 nM. The IC50 was found to be 24.6 µM in the experiment with MLE12 cells (MLE12, 24 h) and 0.383 µM on OGG1.
The corresponding values for `O=c1[nH]c2c(Br)cccc2n1[C@H]1CC[C@@H](C(=O)Nc2ccc(O)c(Cl)c2)CC1` [Example 201, Cis-4-(4-bromo-2-oxo-2,3-dihydro-1H-1,3-benzodiazol-1-yl)-N-(3-chloro-4-hydroxyphenyl)cyclohexane-1-carboxamide] are 18200 nM, 10.4 µM and 0.0351 µM.
The corresponding values for `COc1ccc(NC(=O)[C@H]2CC[C@@H](n3c(=O)[nH]c4c(OC)cccc43)CC2)cc1C` [Example 206, Cis-4-(4-methoxy-2-oxo-2,3-dihydro-1H-1,3-benzodiazol-1-yl)-N-(4-methoxy-3-methylphenyl)cyclohexane-1-carboxamide] are 33700 nM, 26.7 µM and 0.0154 µM.
The corresponding values for `COc1cc(NC(=O)[C@H]2CC[C@@H](n3c(=O)[nH]c4c(NC(=O)c5cc[nH]n5)cccc43)CC2)ccc1C` [Example 299, N-{2-Oxo-1-[cis-4-[(3-methoxy-4-methylphenyl)carbamoyl]cyclohexyl]-2,3-dihydro-1H-1,3-benzodiazol-4-yl}-1H-pyrazole-3-carboxamide] are 31700 nM, 10.2 µM and 0.0272 µM.
In the case of `COC(=O)c1cccc2c1[nH]c(=O)n2[C@H]1CC[C@@H](C(=O)Nc2ccc(C)c(OC)c2)CC1` [Example 258, Methyl 2-oxo-1-[cis-4-[(3-methoxy-4-methylphenyl)carbamoyl]cyclohexyl]-2,3-dihydro-1H-1,3-benzodiazole-4-carboxylate], in the experiment with CCL2 (setting [1]), the EC50 turned out to be 42700 nM. The half-maximal inhibitory concentration (IC50) in the experiment on MLE12 cells (MLE12, 24 h) was found to be 11.3 µM; on OGG1, 0.00583 µM.
Consider `O=c1[nH]c2c(Br)cccc2n1[C@H]1CC[C@@H](C(=O)Nc2ccc3ncccc3c2)CC1` [Example 204, Cis-4-(4-bromo-2-oxo-2,3-dihydro-1H-1,3-benzodiazol-1-yl)-N-(quinolin-6-yl)cyclohexane-1-carboxamide], for which, in the experiment on CCL2 (setting [1]), the EC50 came to 12900 nM. The IC50 came to 7.93 µM in the experiment with MLE12 cells (MLE12, 24 h) and 0.0656 µM on OGG1.
Turning to `COc1cc(NC(=O)[C@H]2CC[C@@H](n3c(=O)[nH]c4c(O)cccc43)CC2)ccc1C` [Example 227, Cis-4-(4-hydroxy-2-oxo-2,3-dihydro-1H-1,3-benzodiazol-1-yl)-N-(3-methoxy-4-methylphenyl)cyclohexane-1-carboxamide], the 50% effective concentration (EC50) with CCL2 (setting [1]) turned out to be 27500 nM. The half-inhibitory concentration (IC50) with MLE12 cells (MLE12, 24 h) is 16.5 µM; against OGG1, 0.0179 µM.
The corresponding values for `COc1cc(NC(=O)[C@H]2CC[C@@H](n3c(=O)[nH]c4c(C(=O)NCCO)cccc43)CC2)ccc1C` [Example 263, N-(2-Hydroxyethyl)-2-oxo-1-[cis-4-[(3-methoxy-4-methylphenyl)carbamoyl]cyclohexyl]-2,3-dihydro-1H-1,3-benzodiazole-4-carboxamide] are over 33000 nM, 27.2 µM and 0.00271 µM.
The corresponding values for `COc1cc(NC(=O)[C@H]2CC[C@@H](n3c(=O)[nH]c4c(NC(=O)C5CNCCO5)cccc43)CC2)ccc1C` (stereo partly drawn) [Example 289, N-{2-Oxo-1-[cis-4-[(3-methoxy-4-methylphenyl)carbamoyl]cyclohexyl]-2,3-dihydro-1H-1,3-benzodiazol-4-yl}morpholine-2-carboxamide] are 32100 nM, 24.5 µM and 0.0517 µM.
The corresponding values for `Cc1cc(NC(=O)[C@H]2CC[C@@H](n3c(=O)[nH]c4c(Br)cccc43)CC2)ccc1F` [Example 142, (Cis)-4-(4-bromo-2-oxo-2,3-dihydro-1H-1,3-benzodiazol-1-yl)-N-(4-fluoro-3-methylphenyl)cyclohexane-1-carboxamide] are 15800 nM, 7.96 µM and 0.497 µM.
Consider `COc1ccc(NC(=O)[C@H]2CC[C@@H](n3c(=O)[nH]c4c(Br)cccc43)CC2)cc1` [Example 140, (Cis)-4-(4-bromo-2-oxo-2,3-dihydro-1H-1,3-benzodiazol-1-yl)-N-(4-methoxyphenyl)cyclohexane-1-carboxamide], for which the half-maximal effective concentration (EC50) in the experiment with CCL2 (setting [1]) was 34600 nM. Also, the IC50 came to 17.7 µM in the experiment on MLE12 cells (MLE12, 24 h) and 0.025 µM against OGG1.
Regarding `COc1cc(NC(=O)[C@H]2CC[C@@H](n3c(=O)[nH]c4c(N5CCCC5)cccc43)CC2)ccc1C` [Example 310, Cis-N-(3-methoxy-4-methylphenyl)-4-[2-oxo-4-(pyrrolidin-1-yl)-2,3-dihydro-1H-1,3-benzodiazol-1-yl]cyclohexane-1-carboxamide], in the experiment on CCL2 (setting [1]), the EC50 amounted to 13600 nM. Besides, the 50% inhibitory concentration (IC50) was determined as 6.13 µM in the experiment with MLE12 cells (MLE12, 24 h) and 0.0516 µM at OGG1.
Turning to `O=c1[nH]c2c(Br)cccc2n1[C@H]1CC[C@@H](C(=O)Nc2ccc3cc[nH]c3c2)CC1` [Example 135, (Cis)-4-(4-bromo-2-oxo-2,3-dihydro-1H-1,3-benzodiazol-1-yl)-N-(1H-indol-6-yl)cyclohexane-1-carboxamide], in the experiment on CCL2 (setting [1]), the EC50 is 23300 nM. In addition, the IC50 is 9 µM with MLE12 cells (MLE12, 24 h) and 0.094 µM against OGG1.
